Results: paper PMC10860144, “Exploring the Dispersion and Electrostatic Components in Arene–Arene Interactions between Ligands and G4 DNA to Develop G4-Ligands” (Journal of Medicinal Chemistry, 2024)

How the values were obtained:
[1] = system: Tba (thrombin binding aptamer); assay: FRET melting assay, Tba G4 DNA; conditions: 5 at 2 μM, 27 at 5 μM; G4 DNA 0.2 μM
Experimental: Additional G4 DNA structures were examined in the FRET melting assay to study the selectivity of compound (5) and its methylated analogue (27) toward different G4 structures. Compounds 5 and 27 were tested at 2 and 5 μM, respectively, for their abilities to increase the thermal stability of G4 DNA structures (Figure 6C and Table S1). Overall, this confirms that compound 5 is a much stronger G4 stabilizer, as compared to 27.
Synthetic labeled oligonucleotides for the FRET study were purchased from Eurofins Genomics. Stock solutions were prepared in MQ-water at 100 μM concentration. The sequences used are listed in Supporting Information Table S1. All the oligonucleotides except Pu22 were prefolded in 10 mM lithium cacodylate buffer (pH 7.4), with 10 mM KCl and 90 mM LiCl by heating for 10 min at 95 °C and then cooling in fridge for at least 1 h. […]
The FRET occurs between two dyes (5′-FAM as donor and 3′-TAMRA as acceptor) linked at both extremities of a DNA oligonucleotide. […] This process can be detected by a reduction in the fluorescence emission of the donor. Fluorescence emission of the donor is recovered when the temperature increment triggers the thermal denaturation of the G4 structure. […] The stabilization (ΔTm) is calculated from comparison of Tm of the fluorescently labeled oligonucleotide in the presence or absence of the ligand.

[2] = Caco-2 intrinsic permeability; format: in vitro ADME; conditions: human, read-out: Cell-permeability (Papp)
Excerpt: We next performed further profiling of the most promising compound 5 and its matched pair neutral analogue 27, by measuring intrinsic permeability in a Caco-2 assay (Table S3). […] This was further confirmed using Immortalized Human Total Liver Cell Population (IHTLCP) and HeLa cells (Figures S22 and S23). […] This observed cytotoxicity of 5 can be linked to its potent G4 binding and stabilization, as it can potentially act as a pan-G4 stabilizer and affect various G4-regulated cellular processes, such as telomere maintenance, gene transcription, and DNA replication.
Physicochemical properties
The Physicochemical profiling (LogD, Solubility, Caco-2 cell permeability) was performed as previously
described.8 Cell viability was performed as described below.
Table S2. Pharmacokinetic Properties
Compound Structure logD, Solubility, Rat hepsa Human mics b

c-MYC Pu22 G4 DNA = assay: 1H NMR titration with c-MYC Pu22 G4 DNA; format: binding, human; conditions: DNA 90 μM; 298 K
Excerpt: To study the interactions of compounds 5 and 27 with G4 DNA in more detail, we performed a nuclear magnetic resonance (NMR) titration assay for both compounds with c-MYC Pu22 G4 DNA. In this assay, we monitored chemical shift alterations and the broadening of the well-defined imino protons from the G4 DNA located at 10–12 ppm in the NMR spectrum upon the addition of different compound concentrations. […] Although it is challenging to conclude the details of the binding interactions, the observed impact on the protons in the 3′ quartet for both compounds, especially compound 27, strongly implies the presence of an end-stacking type of interaction.
The G4 DNA stock solutions were prepared by folding 100 μM c-MYC Pu22 in 10 mM potassium phosphate buffer (pH = 7.4) and 35 mM KCl by heating at 95 °C for 10 min and cooling to ambient temperature overnight. 10% D2O was added to the DNA stock solutions, yielding a final DNA concentration of 90 μM. NMR samples were prepared by sequential addition of 5 or 27 from 2 or 10 mM DMSO-d6 stock solutions to 200 μL of the DNA solution which was then transferred to 3 mm NMR tubes. […] All spectra were recorded at 298 K on a Bruker 850 MHz Avance III HD spectrometer equipped with a 5 mm TCI cryoprobe. Excitation sculpting was used in the 1D 1H experiments, and 256 scans were recorded. Processing of spectra was performed in MestreNova 10.0.2.

HeLa cells = assay: HeLa cell viability (PrestoBlue); format: cell-based; conditions: Homo sapiens, 48 h
Experimental: (§1) Cell viability was measured using the PrestoBlue cell viability reagent (Invitrogen) according to the manufacturer’s recommendations.
For HeLa cells, 5000 cells/well were seeded in complete medium on 96-wells, black walls plate the day before the treatment. Compounds were dissolved in medium at the indicated concentrations and added to cells. Five technical replicates were performed for each treatment. 48 h after treatment, 8 μL of PrestoBlue was added to each well and the cells were incubated at 37 °C for 15 min. Fluorescence (excitation 560 nm, emission 590 nm, 10 nm bandwidth) was recorded using a FLUOstar Omega Microplate Reader (BMG). […]
as §1
For HeLa cells, 5000 cells/well were seeded in complete medium on 96-wells, black walls plate the day before the treatment. […] Fluorescence (excitation 560 nm, emission 590 nm, 10 nm bandwidth) was recorded using a FLUOstar Omega Microplate Reader (BMG).
For Immortalized Human Total Liver Cell Population (IHTLCP), 1850 cells/well were seeded in complete Prigrow III medium (abm) in 384-wells, black walls plate (Perkin Elmer) the day before the treatment. […] Percent viability of IHTLCP cells was calculated as FLUcmp -FLUbg/ FLUDMSO -FLUbg (n=3).
THP1 cell viability was measured according to a previously published procedure.9

| Structure (SMILES) | effect on thermal stability of Tba [1] | Papp [2] [×10⁻⁶ cm/s] | binding by NMR titration (imino protons) (c-MYC Pu22 G4 DNA) | IC50 (HeLa cells) [µM] |
| --- | --- | --- | --- | --- |
| Cc1cc(C)c2nc(Nc3nc(C)cc(NCCCN(C)C)n3)nc(C)c2c1 [Compound 5, N4-(3-(Dimethylamino)propyl)-6-methyl-N2-(4,6,8-trimethylquinazolin-2-yl)pyrimidine-2,4-diamine] | Neither compound affected the thermal stability | < 0.13 | bind | 0.88 to 1.1 |
| Cc1cc(C)c2nc(Nc3nc(C)cc(C)n3)nc(C)c2c1 [Compound 27, N-(4,6-Dimethylpyrimidin-2-yl)-4,6,8-trimethylquinazolin-2-amine] | Neither compound affected the thermal stability | 70 | bind | 19 to 34 |
